# According to ChEMBL document CHEMBL5050860, “Substrate selective hsd17b13 inhibitors and uses thereof” (2021):
# Biological target: not listed separately
# Experiment: Inhibition of His-tagged HSD17B13 (unknown origin) using estradiol as substrate incubated for 2 hrs and measured by LC-MS/MS analysis
# Design: species or system Homo sapiens
row,Ki [nM],SMILES
1,> 30000,CCOC(=O)c1cccc(-n2c(-c3ccncc3)nc3cc(OC)ccc32)c1
2,8550,Oc1cccc(-c2nccc3cc(O)ccc23)c1
3,7580,Cc1cc(-c2ccc(-c3cccc(O)c3)s2)ccc1O
4,320,O=C1c2ccc(O)cc2C(=O)c2ccc(O)cc21 [ANTHRAFLAVICACID]

# Biological target: not listed separately
# Experiment: Inhibition of His-tagged HSD17B13 (unknown origin) using LTB3 as substrate incubated for 1 hr and measured after 1 hr by fluorescence based assay
# Design: species or system Homo sapiens
row,Ki [nM],SMILES
1,2720,CCOC(=O)c1cccc(-n2c(-c3ccncc3)nc3cc(OC)ccc32)c1
2,> 30000,Oc1cccc(-c2nccc3cc(O)ccc23)c1
3,1070,Cc1cc(-c2ccc(-c3cccc(O)c3)s2)ccc1O
4,2810,O=C1c2ccc(O)cc2C(=O)c2ccc(O)cc21 [ANTHRAFLAVICACID]

# Species: Homo sapiens
# Experiment: Ratio of Ki for inhibition of His-tagged HSD17B13 (unknown origin) using LTB3 as substrate to Ki for His-tagged HSD17B13 (unknown origin) using estradiol as substrate
row,Ratio Ki,SMILES
1,< 0.091,CCOC(=O)c1cccc(-n2c(-c3ccncc3)nc3cc(OC)ccc32)c1
2,> 3.5,Oc1cccc(-c2nccc3cc(O)ccc23)c1
3,0.14,Cc1cc(-c2ccc(-c3cccc(O)c3)s2)ccc1O
4,8.8,O=C1c2ccc(O)cc2C(=O)c2ccc(O)cc21 [ANTHRAFLAVICACID]
